BindingDB's records for doi:10.1021/jm020018f (Sphinx Laboratories, 2002)

Molecular target: cAMP-dependent protein kinase catalytic subunit alpha (Bos taurus, UniProt P00517)
Test: PKA assay
Method: The activity of PKA, activated by cAMP, is measured by its ability to transfer phosphate from [gamma-32P]ATP to histone.

| Compound | IC50 (pH 7.5, 30 °C) | IC50 |
| --- | --- | --- |
| O=C(N[C@@H]1CNCCC[C@H]1OC(=O)c1cc(O)c(C(=O)c2ccccc2C(=O)O)c(O)c1)c1ccc(O)cc1 | 1 µM | – |
| O=C(N[C@@H]1CNCCC[C@H]1OC(=O)c1cc(O)c(Cc2c(O)cccc2C(=O)O)c(O)c1)c1ccc(O)cc1 [2-{[2,6-dihydroxy-4-({[(3R,4R)-3-[(4-hydroxybenzene)amido]azepan-4-yl]oxy}carbonyl)phenyl]methyl}-3-hydroxybenzoic acid] | – | 0.47 µM |
| O=C(N[C@@H]1CNCCC[C@H]1OC(=O)c1cc(O)c(C(=O)c2ccc3ccccc3c2O)c(O)c1)c1ccc(O)cc1 [4-trans-[4-(1-Hydroxy-2-naphthoyl)-3,5-dihydroxybenzoyloxy]-3-(4-hydroxybenzamido)azepane] | – | > 150 µM |
| O=C(N[C@@H]1CNCCC[C@H]1OC(=O)c1cc(O)c(C(=O)c2ccccc2O)c(O)c1)c1ccc(O)cc1 [4-trans-[4-(2-Hydroxybenzoyl)-3,5-dihydroxybenzoyloxy]-3-(4-hydroxybenzamido)azepane] | 0.44 µM | – |
| O=C(N[C@@H]1CNCCC[C@H]1OC(=O)c1cc(O)c(C(=O)[C@@H]2CCCC[C@@H]2C(=O)O)c(O)c1)c1ccc(O)cc1 [4-trans-[4-(cis-2-Carboxycyclohexanoyl)-3,5-dihydroxybenzoyloxy]-3-(4-hydroxybenzamido)azepane] | 7.9 µM | – |
| O=C(N[C@@H]1CNCCC[C@H]1OC(=O)c1cc(O)c2c(=O)c3c(C(=O)O)cccc3oc2c1)c1ccc(O)cc1 [8-hydroxy-6-({[(3R,4R)-3-[(4-hydroxybenzene)amido]azepan-4-yl]oxy}carbonyl)-9-oxo-9H-xanthene-1-carboxylic acid] | – | > 15 µM |
| O=C(N[C@@H]1CNCCC[C@H]1OC(=O)c1cc(O)c(C(=O)[C@@H]2CCCC[C@H]2C(=O)O)c(O)c1)c1ccc(O)cc1 [(1R,2R)-2-{[2,6-dihydroxy-4-({[(3R,4R)-3-[(4-hydroxybenzene)amido]azepan-4-yl]oxy}carbonyl)phenyl]carbonyl}cyclohexane-1-carboxylic acid] | 6.7 µM | – |
| COc1cccc(O)c1C(=O)c1c(O)cc(C(=O)O[C@@H]2CCCNC[C@H]2NC(=O)c2ccc(O)cc2)cc1O [(3R,4R)-3-[(4-hydroxybenzene)amido]azepan-4-yl 3,5-dihydroxy-4-[(2-hydroxy-6-methoxyphenyl)carbonyl]benzoate] | – | 0.25 µM |
| O=C(N[C@@H]1CNCCC[C@H]1OC(=O)c1cc(O)c(C(=O)c2c(O)cccc2O)c(O)c1)c1ccc(O)cc1 [(3R,4R)-3-[(4-hydroxybenzene)amido]azepan-4-yl 4-[(2,6-dihydroxyphenyl)carbonyl]-3,5-dihydroxybenzoate] | 0.44 µM | – |
| COc1cc(C(=O)O[C@@H]2CCCNC[C@H]2NC(=O)c2ccc(O)cc2)cc(OC)c1C(=O)c1c(O)cccc1O [(3R,4R)-3-[(4-hydroxybenzene)amido]azepan-4-yl 4-[(2,6-dihydroxyphenyl)carbonyl]-3,5-dimethoxybenzoate] | – | 4.3 µM |
| COc1cccc(OC)c1C(=O)c1c(O)cc(C(=O)O[C@@H]2CCCNC[C@H]2NC(=O)c2ccc(O)cc2)cc1O [(3R,4R)-3-[(4-hydroxybenzene)amido]azepan-4-yl 4-[(2,6-dimethoxyphenyl)carbonyl]-3,5-dihydroxybenzoate] | – | 0.36 µM |
| O=C(N[C@@H]1CNCCC[C@H]1OC(=O)c1cc(O)c(C2OC(=O)c3cccc(O)c32)c(O)c1)c1ccc(O)cc1 (stereo partly drawn) [trans-4-[3,5-Dihydroxy-4-(4-hydroxy-3-phthlido)benzoyloxy]-3-(4-hydroxybenzamido)azepine] | – | 0.3 µM |
